Source: patent US20250065090A1, “DEVICE AND METHOD FOR DELIVERY OF A HEARING DRUG FORMULATION” (Corti Therapeutics Pte. Ltd., priority 2023, published 2025)
Where two headings read alike, the source gives them in different places.

Columns and labels:
[1] = system: patients receiving cisplatin; settings: cited from earlier work
[2] = system: cisplatin hearing loss model
Excerpt: A solution of freshly prepared sodium thiosulfate solution was loaded in a Hamilton syringe with 26 G needle.

[3] = after STS local administration
Protocol: The time-concentration data was used for calculations. The area under the concentration-time curve (AUC) was determined by the trapezoidal rule. Terminal elimination half-lives of sodium thiosulfate (STS) in perilymph and plasma were determined by use of WIN NONLIN version 2.0 SCI.
30 guinea pigs (250-350 g) without sign of otitis media stayed for ˜3 days acclimation, and ready for PK study. Two anesthesia methods (Zoletil+Xylazine with head up 30 min) and Isoflurane (animal wake up immediately post-injection)] were used. 15 animals for each group.
The subjection guinea pig was anesthetized with zolazepam hydrochloride (Zoletil) and Xylazine or isoflurane inhalation. A solution of freshly prepared sodium thiosulfate solution was loaded in a Hamilton syringe with 26 G needle. The needle was carefully inserted into the left middle ear cavity via the tympanic membrane aiming to cochlear round window. ˜50 μL of dosing solution was injected. The animal was positioned head up for ˜30 min prior to waking up in Zoletil and Xylazine or wake up immediately in isoflurane inhalation.
In C-subgroup of each group, animal blood was systemically drawn (˜100 uL) via bilateral saphenous vein at the multiple time points. Put the collection blood in heparinized tube and stay ˜20 min. ˜50 μL of plasma was collected in microtube and put in −80° C. for future analysis.
STS concentrations were quantitatively analyzed by HPLC using an LC-20AT with a SPD-M20A UV-Vis detector (Shimadzu, Kyoto, Japan) and a LiChrospher RP-select B LiChroCART 250-4 […] column (EMD Millipore Corp, Darmstadt, Germany). All samples were prepared using a method similar to that described by Togawa et al. (1992).

[4] = Calculated osmolarity of STS formulation; assay type: physicochemical; settings: aqueous solution of sodium thiosulfate 0.1M to 0.5M
[5] = system: cisplatin induced hearing loss; settings: intratympanic administration, multiple clinical trials; cited from earlier work
[6] = system: cisplatin induced hearing loss; settings: intratympanic injection, animal studies; cited from earlier work
[7] = system: cisplatin induced hearing loss; settings: systemic administration, humans; cited from earlier work

Structure (SMILES)	cure rate ([1]; cisplatin based chemotherapy, testicular cancer) [%]	patients developing hearing loss ([1]; human, in vivo)	hearing protection ([2]; 0.2M concentration, simple aqueous formulation without gelling agent, guinea pig cisplatin hearing loss model)	protection of the sodium thiosulfate treated ears (ABR) ([2]; all groups (2.5%, 5% and 10% sodium thiosulfate), TT or IT injection ~30 min before cisplatin 10 mg/kg iv, ABR 7 days after infusion, treated vs untreated contralateral ear)	Tmax of systemic thiosulfate [3]	systemic thiosulfate concentration [3]	time until systemic thiosulfate concentration recovered to normal [3]	calculated osmolarity [4] [mOsm/L]	hearing protection [5]	effect on cisplatin induced hearing loss [6]	effect on cisplatin induced hearing loss [7]
N.N.[Cl][Pt][Cl] [cisplatin, Cisplatin]	> 90	60%-80%	–	–	–	–	–	–	–	–	–
O=S([O-])([O-])=S.[Na+].[Na+] [sodium thiosulfate]	–	–	full hearing protection	nearly completed protection	approximately 30 min	increased	around 1 hour	< 1500	no meaningful hearing protection	prevented the cisplatin induced hearing loss	mitigate cisplatin induced hearing loss
